Here are results for three compounds from patent publication US7282491B2, “Prokaryotic proteasomal proteases of Mycobacterium tuberculosis (MTB) as targets for antibiotic therapy” (Cornell Research Foundation, Inc., priority 2002, dated 2007).

In experiment [1] the test system is wt Mtb. It is filed as cell-based, Mycobacterium tuberculosis. As to conditions: for augmentation of anti-mycobacterial activity of nitrite, inhibitor added along with nitrite at day 0: pH 6.5.
Experiment [2] deals with wt Mtb. In kind it is cell-based, Mycobacterium tuberculosis.
Experiment [3] relates to wt Mtb.
For the next experiment, the target named is mycobacterial proteasome (Mycobacterium tuberculosis, UniProt P9WHT9). As to conditions: tetrapeptide substrate, 0.05% SDS; FIG. 11A.
For a further experiment, the system named is tubercle bacilli. As to conditions: cited from earlier work.

The structures appear in SMILES notation.

Chain of mycobacterial proteasome (P9WHT9 58-291): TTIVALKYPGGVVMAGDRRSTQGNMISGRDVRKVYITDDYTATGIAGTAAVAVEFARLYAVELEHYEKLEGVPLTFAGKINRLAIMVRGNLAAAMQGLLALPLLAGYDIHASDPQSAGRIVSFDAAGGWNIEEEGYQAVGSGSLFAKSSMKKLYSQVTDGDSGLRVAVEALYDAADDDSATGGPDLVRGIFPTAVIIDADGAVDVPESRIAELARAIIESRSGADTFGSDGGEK
Chain of mycobacterial proteasome (P9WHU1 whole entry partner): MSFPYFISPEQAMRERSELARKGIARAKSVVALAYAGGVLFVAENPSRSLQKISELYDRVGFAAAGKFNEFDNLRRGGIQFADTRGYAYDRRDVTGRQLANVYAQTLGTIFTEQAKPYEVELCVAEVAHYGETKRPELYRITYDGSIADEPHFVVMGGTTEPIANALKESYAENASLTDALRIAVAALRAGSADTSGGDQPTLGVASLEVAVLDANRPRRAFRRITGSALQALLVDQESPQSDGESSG
Procedure for mycobacterial proteasome: To measure proteasomal protease activity, Mtb was lysed by agitation with zirconia silica beads. The soluble fraction was filtered through a 0.45 micron filter. Aliquots of the filtrate (120 g protein) were incubated with succinyl-leu-leu-val-tyr-alpha-methylcoumarin (SEQ ID NO: 1) in the presence of 0.05% SDS and fluorescence was monitored. […] The 50% inhibitory concentration was determined by applying the Hill equation to data from 2 experiments, each in triplicate.

Turning to `CC(C)C[C@H](NC(=O)[C@H](Cc1cccc2ccccc12)NC(=O)N1CCOCC1)B(O)O` [MLN-273, N-[4-morpholine]carbonyl-β-[1-naphthyl]-L-alanine-L-leucine boronic acid], in the experiment on wt Mtb [1], the “augmentation of anti-mycobacterial activity of nitrite, inhibitor added only at the subculture” value is recorded as “just as effective”; the “augmentation of nitrite-mediated injury of wt Mtb” value is “augmented nitrite-mediated injury”; the “augmentation of the mycobacteriacidal effect of nitrite, inhibitors and nitrite removed simultaneously” value is reported as “did not”; the “augmentation of anti-mycobacterial activity of nitrite, inhibitor added along with nitrite at day 0” value is reported as “increased the anti-mycobacterial activity of nitrite”. For the same compound, the “growth of Mtb under standard culture conditions” value in the experiment with wt Mtb [2] was “suppressed the growth of Mtb”. In the experiment with wt Mtb [3], the “outgrowth of Mtb in culture after nitrite” value was “enhanced the ability of nitrite to suppress outgrowth of Mtb”. For the same compound, the “inhibition of proteasomal protease activity in Mtb lysates” value at mycobacterial proteasome is “potently blocked proteasomal protease activity”.

As for `CC[C@H](C)[C@H](NC(=O)[C@H]([C@@H](C)CC)N(C)C(C)=O)C(=O)N[C@H](C(=O)N[C@@H](CC(C)C)C(=O)[C@@]1(C)CO1)[C@@H](C)O` [epoxomicin], in the experiment with wt Mtb [1], the “augmentation of anti-mycobacterial activity of nitrite, inhibitor added only at the subculture” value was “just as effective”; the “augmentation of the mycobacteriacidal effect of nitrite, inhibitors and nitrite removed simultaneously” value is reported as “augmented the mycobacteriacidal effect of nitrite”; the “augmentation of anti-mycobacterial activity of nitrite, inhibitor added along with nitrite at day 0” value is recorded as “increased the anti-mycobacterial activity of nitrite”.

For `[N]=O` [nitric oxide], the “potency of killing tubercle bacilli in vitro” value with tubercle bacilli is about 150 nM.
